Results: ChEMBL document CHEMBL1156236, “Trypanoside, anti-tuberculosis, leishmanicidal, and cytotoxic activities of tetrahydrobenzothienopyrimidines” (Bioorg Med Chem, 2010)
In brackets after ≈: the same amount, converted by molar mass.

Experiments:
[1] = tested on: Vero; assay: Cytotoxicity against african green monkey Vero cells after 72 hrs by MTS assay; conditions: Chlorocebus sabaeus, Vero, 72 h
[2] = tested on: Trypanosoma cruzi; assay: Antitrypanosomal activity against Trypanosoma cruzi tulahuen C4 trypomastigotes infected in african green monkey Vero cells assessed as CPRG cleavage after 120 hrs by microplate reader; type: functional, organism-based
[3] = tested on: Mycobacterium tuberculosis; assay: Antitubercular activity against Mycobacterium tuberculosis H37Rv ATCC 27294 after 7 days by microplate alamar blue assay; type: functional; conditions: H37Rv ATCC 27294, 168 h
[4] = Selectivity index, ratio of IC50 for african green monkey Vero cells to MIC for Mycobacterium tuberculosis H37Rv ATCC 27294 by microplate alamar blue assay; type: functional
[5] = Cytotoxicity against BALB/c mouse macrophages after 48 hrs by trypan blue dye exclusion method; type: cell-based; conditions: Macrophage
[6] = tested on: Leishmania amazonensis; assay: Antileishmanial activity against Leishmania amazonensis MHOM/BR/76/LTB-012 amastigotes infected BALB/c mouse macrophages after 48 hrs by MTT assay; type: functional, organism-based; conditions: MHOM/BR/76/LTB-012, 48 h
[7] = tested on: Leishmania braziliensis; assay: Antileishmanial activity against Leishmania braziliensis MHOM/PE/PER006 promastigote infected BALB/c mouse macrophages after 48 hrs by Giemsa staining method; type: functional, organism-based; conditions: MHOM/PE/PER006, 48 h
[8] = tested on: Leishmania peruviana; assay: Antileishmanial activity against Leishmania peruviana MHOM/PE/LCA08 promastigote infected BALB/c mouse macrophages after 48 hrs by Giemsa staining method; type: functional, organism-based; conditions: MHOM/PE/LCA08, 48 h
[9] = Cytotoxicity against BALB mouse 3T3 cells; type: cell-based; conditions: BALB 3T3 cells
[10] = tested on: DU-145; assay: Cytotoxicity against human DU145 cells; type: functional
[11] = tested on: M14; assay: Cytotoxicity against human M14 cells; type: functional
[12] = tested on: K562; assay: Cytotoxicity against human K562 cells; type: functional
[13] = tested on: HL-60(TB); assay: Cytotoxicity against human HL-60(TB) cells; type: functional
[14] = tested on: HOP-62; assay: Cytotoxicity against human HOP62 cells; type: functional
[15] = tested on: HOP-92; assay: Cytotoxicity against human HOP92 cells; type: functional
[16] = tested on: NCI-H226; assay: Cytotoxicity against human NCI-H226 cells; type: functional
[17] = tested on: NCI-H23; assay: Cytotoxicity against human NCI-H23 cells; type: functional
[18] = tested on: NCI-H322M; assay: Cytotoxicity against human NCI-H322M cells; type: functional
[19] = tested on: HCC 2998; assay: Cytotoxicity against human HCC2998 cells; type: functional
[20] = tested on: HCT-116; assay: Cytotoxicity against human HCT116 cells; type: functional
[21] = tested on: KM12; assay: Cytotoxicity against human KM12 cells; type: functional
[22] = tested on: SW-620; assay: Cytotoxicity against human SW620 cells; type: functional
[23] = tested on: SF-295; assay: Cytotoxicity against human SF295 cells; type: functional
[24] = tested on: U-251; assay: Cytotoxicity against human U251 cells; type: functional
[25] = tested on: LOX IMVI; assay: Cytotoxicity against human LOXIMVI cells; type: functional
[26] = tested on: Malme-3M; assay: Cytotoxicity against human MALME-3M cells; type: functional
[27] = tested on: MDA-MB-435; assay: Cytotoxicity against human MDA-MB-435 cells; type: functional
[28] = tested on: SK-MEL-28; assay: Cytotoxicity against human SK-MEL-28 cells; type: functional
[29] = tested on: SK-MEL-5; assay: Cytotoxicity against human SK-MEL-5 cells; type: functional
[30] = tested on: UACC-257; assay: Cytotoxicity against human UACC257 cells; type: functional
[31] = tested on: UACC-62; assay: Cytotoxicity against human UACC62 cells; type: functional
[32] = tested on: OVCAR-3; assay: Cytotoxicity against human OVCAR-3 cells; type: functional
[33] = tested on: OVCAR-5; assay: Cytotoxicity against human OVCAR5 cells; type: functional
[34] = tested on: NCI/ADR-RES; assay: Cytotoxicity against human NCI/ADR-RES cells; type: functional
[35] = tested on: SK-OV-3; assay: Cytotoxicity against human SKOV3 cells; type: functional
[36] = tested on: 786-0; assay: Cytotoxicity against human 786-0 cells; type: functional
[37] = tested on: ACHN; assay: Cytotoxicity against human ACHN cells; type: functional
[38] = tested on: CAKI-1; assay: Cytotoxicity against human Caki1 cells; type: functional
[39] = tested on: RXF 393; assay: Cytotoxicity against human RXF393 cells; type: functional
[40] = tested on: SN12C; assay: Cytotoxicity against human SN12C cells; type: functional
[41] = tested on: TK-10; assay: Cytotoxicity against human TK10 cells; type: functional
[42] = tested on: UO-31; assay: Cytotoxicity against human UO31 cells; type: functional; conditions: read-out: LC50 (the source's name)
[43] = Cytotoxicity against human Hs 578T cells; type: functional
[44] = tested on: BT-549; assay: Cytotoxicity against human BT549 cells; type: functional
[45] = tested on: MDA-MB-468; assay: Cytotoxicity against human MDA-MB-468 cells; type: functional
[46] = read-out: LC50 (the source's name)

C(=N\Nc1ncnc2sc3c(c12)CCCC3)/c1ccccn1
IC50 [1]: < 0.3 µM | IC50 [2]: 3.9 µM | MIC [3]: 145 µM (≈ 44.9 µg/mL) | Ratio IC50 [4]: 0.2 | IC50 [5]: 6.5 µM | IC50 [6]: 0.5 µM | IC50 [7]: 0.6 µM | IC50 [8]: 0.7 µM | GI50 [9]: 0.04 µM | GI50 [10]: 0.37 µM | LC50 [10]: 51.6 µM | TGI [10]: 15.1 µM | GI50 [11]: 0.25 µM | TGI [11]: 0.599 µM | CC50 [11, 46]: 33.4 µM | GI50 [12]: 0.16 µM | TGI [12]: 10.8 µM | CC50 [12, 46]: > 100 µM | GI50 [13]: 0.12 µM | TGI [13]: 0.407 µM | CC50 [13, 46]: > 100 µM | GI50 [14]: 0.395 µM | TGI [14]: 17.7 µM | CC50 [14, 46]: > 100 µM | GI50 [15]: 0.417 µM | TGI [15]: 31 µM | CC50 [15, 46]: > 100 µM | GI50 [16]: 0.385 µM | TGI [16]: 16.2 µM | CC50 [16, 46]: > 100 µM | GI50 [17]: 0.705 µM | TGI [17]: 34.3 µM | CC50 [17, 46]: > 100 µM | GI50 [18]: 0.216 µM | TGI [18]: 35 µM | CC50 [18, 46]: > 100 µM | GI50 [19]: 10 µM | TGI [19]: 22.9 µM | CC50 [19, 46]: 52.6 µM | GI50 [20]: 0.166 µM | TGI [20]: 14.2 µM | CC50 [20, 46]: 67.4 µM | GI50 [21]: 0.515 µM | TGI [21]: 12.7 µM | CC50 [21, 46]: 38 µM | GI50 [22]: 0.561 µM | TGI [22]: 17.9 µM | CC50 [22, 46]: 59.5 µM | GI50 [23]: 0.313 µM | TGI [23]: 12.1 µM | CC50 [23, 46]: > 100 µM | GI50 [24]: 0.369 µM | TGI [24]: 12.1 µM | CC50 [24, 46]: 34.8 µM | GI50 [25]: 0.256 µM | CC50 [25, 46]: 34.8 µM | GI50 [26]: 0.275 µM | TGI [26]: 10.3 µM | CC50 [26, 46]: 51.4 µM | GI50 [27]: 0.477 µM | TGI [27]: 25.1 µM | CC50 [27, 46]: > 100 µM | GI50 [28]: 0.422 µM | TGI [28]: 16.7 µM | CC50 [28, 46]: 54.6 µM | GI50 [29]: 0.332 µM | TGI [29]: 1.72 µM | CC50 [29, 46]: 23.6 µM | GI50 [30]: 0.355 µM | CC50 [30, 46]: 41.7 µM | GI50 [31]: 0.379 µM | TGI [31]: 6.54 µM | CC50 [31, 46]: 48.4 µM | GI50 [32]: 0.109 µM | TGI [32]: 14.5 µM | CC50 [32, 46]: 43.9 µM | GI50 [33]: 0.823 µM | TGI [33]: 31.4 µM | CC50 [33, 46]: > 0.1 µM | GI50 [34]: 0.427 µM | TGI [34]: 58.1 µM | CC50 [34, 46]: > 0.1 µM | GI50 [35]: 0.41 µM | TGI [35]: 29.2 µM | CC50 [35, 46]: > 0.1 µM | GI50 [36]: 0.333 µM | TGI [36]: 0.947 µM | CC50 [36, 46]: 44.4 µM | GI50 [37]: 0.313 µM | TGI [37]: 11 µM | CC50 [37, 46]: > 100 µM | GI50 [38]: 0.313 µM | TGI [38]: 14.8 µM | CC50 [38, 46]: > 100 µM | GI50 [39]: 0.423 µM | TGI [39]: 10.6 µM | CC50 [39, 46]: 45.3 µM | GI50 [40]: 0.426 µM | TGI [40]: 15.3 µM | CC50 [40, 46]: 81 µM | GI50 [41]: 0.486 µM | TGI [41]: 56.6 µM | CC50 [41, 46]: > 100 µM | CC50 [42]: 63 µM | GI50 [43]: 0.748 µM | TGI [43]: 23.9 µM | CC50 [43, 46]: > 100 µM | GI50 [44]: 0.394 µM | TGI [44]: 28.7 µM | CC50 [44, 46]: > 100 µM | GI50 [45]: 0.2 µM | TGI [45]: 0.505 µM | CC50 [45, 46]: 41 µM
